Measured values published in patent US9040523B2, “Antifungal 5,6-dihydro-4H-pyrrolo[1,2-α][1,4]-benzodiazepines and 6H-pyrrolo[1,2-α][1,4]benzodiazepines substituted with benzene derivatives” (JANSSEN PHARMACEUTICA NV, priority 2010, dated 2015).
Where a name gives a salt, the structure may show the parent alone.

Legend:
[1] = target: CYP3A4 (Homo sapiens, UniProt P08684); assay: Cytochrome P450 inhibition, Protocol A, cDNA expressed proteins, fluorogenic substrates; type: in vitro ADME; settings: % inhibition at 10 μM, cDNA expressed protein; for hCYP3A4_BFC_Pct_Inh: substrate BFC; for hCYP3A4_BQ_Pct_Inh: substrate BQ; for hCYP3A4_DBF_Pct_Inh: substrate DBF
Chain of CYP3A4 (P08684 whole entry): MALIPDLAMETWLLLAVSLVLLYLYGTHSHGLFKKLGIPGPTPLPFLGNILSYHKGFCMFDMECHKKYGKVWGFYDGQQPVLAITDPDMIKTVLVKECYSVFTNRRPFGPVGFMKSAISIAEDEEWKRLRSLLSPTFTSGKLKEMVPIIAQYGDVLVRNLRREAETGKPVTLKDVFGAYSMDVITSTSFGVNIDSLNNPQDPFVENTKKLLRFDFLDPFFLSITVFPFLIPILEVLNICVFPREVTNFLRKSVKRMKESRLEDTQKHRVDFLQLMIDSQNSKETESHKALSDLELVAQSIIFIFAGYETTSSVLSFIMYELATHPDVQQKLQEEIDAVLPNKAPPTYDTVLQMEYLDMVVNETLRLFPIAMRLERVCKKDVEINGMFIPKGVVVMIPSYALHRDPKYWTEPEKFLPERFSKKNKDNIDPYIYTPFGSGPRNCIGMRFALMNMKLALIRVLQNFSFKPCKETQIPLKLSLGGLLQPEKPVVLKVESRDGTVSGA
Protocol: (§1) All fluorogenic based assays were performed in Black Costar 96-well plates according to Crespi et al 1997 with minor modifications (Crespi C L, Miller V P & Penman B W (1997). Microtiter plate assays for inhibition of human, drug-metabolizing cytochromes P450. Anal. Biochem. Vol 248, 1898-1900). Assay conditions are outlined in Table 5a. For cytochrome P450 3A4, three different fluorogenic substrates were used. Each reaction mixture consisted of the appropriate concentration of enzyme, NADPH-generating system (“NADPH” means β-nicotinamide adenine dinucleotide phosphate, reduced), substrate in sodium/potassium buffer (pH 7.4). For each cytochrome P450 batch Michealis-Menten kinetics were determined using 11 concentrations.
(§2) Thereafter, further dilutions were made in acetonitrile. […] The compounds were serially diluted to give final concentrations ranging from 1 nM to 10 μM. The reaction mixtures, whereby 1 μL of buffer was replaced by compound solution, were pre-warmed for 5 min at 37° C. and the reaction was initiated by the addition of β-nicotinamide adenine dinucleotide phosphate (NADP+). Reactions were terminated by addition of stopping reagent and the fluorescence was measured using a Fluoroscan (Labsystems, Brussel, Belgium).
(§3) In Table 5a, the following abbreviations were used: 3-cyano-7-ethocycoumarin (CEC), 7-methoxy-4-trifluoromethylcoumarin (MFC), 3-[2-(N,N-diethyl-N-methylamino)ethyl]-7-methoxy-4-methylcoumarin (AMMC), 7-benzyloxy-trifluoromethyl coumarin (BFC), 7-benzyloxyquinoline (BQ) and dibenzyl fluorescein (DBF).

[2] = target: T1, CYP1A2 (Homo sapiens, UniProt P05177); assay: Cytochrome P450 inhibition, Protocol A, cDNA expressed proteins, fluorogenic substrate; type: in vitro ADME; settings: % inhibition at 10 μM; substrate CEC; cDNA expressed protein
T1 sequence (P05177 1-516): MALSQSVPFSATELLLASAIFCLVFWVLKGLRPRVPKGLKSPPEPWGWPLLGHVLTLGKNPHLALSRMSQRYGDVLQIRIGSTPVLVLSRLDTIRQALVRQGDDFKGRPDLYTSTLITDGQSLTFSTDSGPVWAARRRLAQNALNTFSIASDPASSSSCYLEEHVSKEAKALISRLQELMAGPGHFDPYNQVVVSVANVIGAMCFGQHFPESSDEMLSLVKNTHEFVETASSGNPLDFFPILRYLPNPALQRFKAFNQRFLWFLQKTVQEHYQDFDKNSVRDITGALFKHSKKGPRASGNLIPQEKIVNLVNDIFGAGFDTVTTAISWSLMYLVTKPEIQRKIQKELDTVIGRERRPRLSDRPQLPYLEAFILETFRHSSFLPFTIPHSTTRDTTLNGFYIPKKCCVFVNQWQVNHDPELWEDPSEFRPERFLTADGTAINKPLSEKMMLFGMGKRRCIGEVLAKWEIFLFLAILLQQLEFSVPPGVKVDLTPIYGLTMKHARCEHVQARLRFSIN
Protocol: as §1, §2, §3

[3] = target: CYP2C9 (Homo sapiens, UniProt P11712); assay: as above; type: in vitro ADME; settings: % inhibition at 10 μM; substrate MFC; cDNA expressed protein
Chain of CYP2C9 (P11712 whole entry): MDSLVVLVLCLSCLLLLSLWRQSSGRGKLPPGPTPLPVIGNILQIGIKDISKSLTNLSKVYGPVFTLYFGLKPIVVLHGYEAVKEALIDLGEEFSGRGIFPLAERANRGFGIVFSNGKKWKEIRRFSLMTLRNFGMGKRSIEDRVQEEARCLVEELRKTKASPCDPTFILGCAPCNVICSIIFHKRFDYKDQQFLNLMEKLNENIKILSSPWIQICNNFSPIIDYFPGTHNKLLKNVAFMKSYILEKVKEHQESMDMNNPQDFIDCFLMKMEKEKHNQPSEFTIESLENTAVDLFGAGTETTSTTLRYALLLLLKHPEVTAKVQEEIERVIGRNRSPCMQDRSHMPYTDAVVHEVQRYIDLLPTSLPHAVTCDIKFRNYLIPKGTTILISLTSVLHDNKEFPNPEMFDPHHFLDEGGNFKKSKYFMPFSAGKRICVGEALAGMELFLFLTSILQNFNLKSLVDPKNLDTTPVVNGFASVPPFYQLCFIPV
Protocol: as §1, §2, §3

[4] = target: CYP2D6 (Homo sapiens, UniProt P10635); assay: as above; type: in vitro ADME; settings: % inhibition at 10 μM; substrate AMMC; cDNA expressed protein
Chain of CYP2D6 (P10635 whole entry): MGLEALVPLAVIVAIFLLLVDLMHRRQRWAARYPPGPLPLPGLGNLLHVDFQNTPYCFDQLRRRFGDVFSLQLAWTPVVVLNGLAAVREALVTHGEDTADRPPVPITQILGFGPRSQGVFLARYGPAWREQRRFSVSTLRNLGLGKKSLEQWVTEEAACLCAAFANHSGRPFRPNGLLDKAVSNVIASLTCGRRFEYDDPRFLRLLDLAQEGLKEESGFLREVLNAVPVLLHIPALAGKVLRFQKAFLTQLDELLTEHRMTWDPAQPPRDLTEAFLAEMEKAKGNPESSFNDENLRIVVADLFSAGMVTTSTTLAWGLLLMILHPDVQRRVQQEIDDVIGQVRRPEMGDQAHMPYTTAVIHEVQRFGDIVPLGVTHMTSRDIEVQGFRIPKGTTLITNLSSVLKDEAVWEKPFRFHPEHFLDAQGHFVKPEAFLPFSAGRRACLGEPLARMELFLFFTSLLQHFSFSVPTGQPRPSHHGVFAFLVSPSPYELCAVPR
Protocol: as §1, §2, §3

[5] = test system: Sporothrix schenkii B62482; assay: Antifungal activity in vitro (resazurin susceptibility screen), Inf. A; type: cell-based; settings: 27 °C, 4 days, resa time 24 hours, highest in-test concentration 64 μM; for IC50: Sporothrix, B62482, Sporothrix schenkii B62482, read-out: Inf. A pIC50 (converted); for Inf. A pIC50: Sporothrix schenkii B62482
Protocol: (§4) The standard susceptibility screen was performed in 96-well plates (U-bottom, Greiner Bio-One). […] These serial dilutions (10 n1) were then spotted onto test-plates that could be stored in the dark at 4° C. for a maximum period of 2 weeks. […] The different fungal species/isolates (Table 3a) were cryopreserved and 1/1000 diluted in medium just prior to use. A standard inoculum of 200 μl containing 10^3 colony-forming unit (cfu) was then added to each well. A positive control (100% growth=fungal culture without antifungal) and a negative control (0% growth ═RPMI-MOPS medium) were included on each plate. […] [table]

[6] = test system: Microsporum canis B68128; assay: Antifungal activity in vitro (resazurin susceptibility screen), Inf. B; type: cell-based; settings: 27 °C, 9 days, resa time 24 hours; for IC50: Microsporum canis, B68128, Microsporum canis B68128, read-out: Inf. B pIC50 (converted); for Inf. B pIC50: Microsporum canis B68128
Protocol: (§5) The standard susceptibility screen was performed in 96-well plates (U-bottom, Greiner Bio-One). […] These serial dilutions (10 n1) were then spotted onto test-plates that could be stored in the dark at 4° C. for a maximum period of 2 weeks. […] A standard inoculum of 200 μl containing 10^3 colony-forming unit (cfu) was then added to each well. A positive control (100% growth=fungal culture without antifungal) and a negative control (0% growth ═RPMI-MOPS medium) were included on each plate.

[7] = test system: Trichophyton rubrum B68183; assay: Antifungal activity in vitro (resazurin susceptibility screen), Inf. C; type: cell-based; settings: Trichophyton rubrum B68183, 27 °C, 7 days, resa time 24 hours; for IC50: read-out: Inf. C pIC50 (converted)
Protocol: as §4

[8] = test system: Candida parapsilosis B66126; assay: Antifungal activity in vitro (resazurin susceptibility screen), Inf. D; type: cell-based; settings: Candida parapsilosis B66126, 37 °C, 24 hours, resa time 4 hours; for IC50: Lodderomyces parapsilosis, read-out: Inf. D pIC50 (converted)
Protocol: as §5

[9] = test system: Aspergillus fumigatus B42928; assay: Antifungal activity in vitro (resazurin susceptibility screen), Inf. E; type: cell-based; settings: Aspergillus fumigatus B42928, 27 °C, 48 hours, resa time 17 hours; for IC50: read-out: Inf. E pIC50 (converted)
Protocol: as §4

[10] = test system: Cryptococcus neoformans B66663; assay: Antifungal activity in vitro (resazurin susceptibility screen), Inf. F; type: cell-based; settings: 37 °C, 24 hours, resa time 4 hours; for IC50: Cryptococcus neoformans, B66663, Cryptococcus neoformans B66663, read-out: Inf. F pIC50 (converted); for Inf. F pIC50: Cryptococcus neoformans B66663
Protocol: as §4

[11] = test system: Trichophyton mentagrophytes B70554; assay: Antifungal activity in vitro (resazurin susceptibility screen), Inf. G; type: cell-based; settings: 27 °C, 7 days, resa time 24 hours; for IC50: Trichophyton mentagrophytes, B70554, Trichophyton mentagrophytes B70554, read-out: Inf. G pIC50 (converted); for Inf. G pIC50: Trichophyton mentagrophytes B70554
Protocol: as §5

Row | hCYP3A4_BFC_Pct_Inh [1] [%] | hCYP3A4_BQ_Pct_Inh [1] [%] | hCYP3A4_DBF_Pct_Inh [1] [%] | hCYP1A2_CEC_Pct_Inh [2] [%] | hCYP2C9_MFC_Pct_Inh [3] [%] | hCYP2D6_AMMC_Pct_Inh [4] [%] | Compound | Inf. B pIC50 [6] | Inf. F pIC50 [10] | also measured
1 | – | – | – | – | – | – | CC(=O)c1ccc(C2NCc3ccc(Cl)cc3-n3cccc32)cc1 (stereo not shown) [Compound 8, 1-[4-(9-chloro-5,6-dihydro-4H-pyrrolo[1,2-a][1,4]benzodiazepin-4-yl)phenyl]-ethanone] | – | – | IC50 [5]: 31.6 µM; IC50 [6]: > 63.1 µM; IC50 [7]: 2 µM; IC50 [8]: > 63.1 µM; IC50 [9]: 12.6 µM; IC50 [10]: 50.1 µM; IC50 [11]: 5.01 µM; melting point: 185.4 to 186.9 °C
2 | – | – | – | – | – | – | CC(=O)c1ccc(C2NCc3c(Cl)cc(Cl)cc3-n3cccc32)cc1 (stereo not shown) [Compound 11, 1-[4-(7,9-dichloro-5,6-dihydro-4H-pyrrolo[1,2-a][1,4]benzodiazepin-4-yl)phenyl]-ethanone] | 6.0 | 5.2 | IC50 [5]: 50.1 µM; IC50 [7]: 2 µM; IC50 [8]: > 63.1 µM; IC50 [9]: > 63.1 µM; IC50 [11]: 5.01 µM; melting point: 204.8 to 206.6 °C
3 | – | – | – | – | – | – | CS(=O)(=O)c1ccc(C2=NCc3c(Cl)cc(Cl)cc3-n3cccc32)cc1 [Compound 30, 7,9-dichloro-4-[4-(methylsulfonyl)phenyl]-6H-pyrrolo[1,2-a][1,4]benzodiazepine] | – | – | IC50 [5]: 50.1 µM; IC50 [6]: 3.98 µM; IC50 [7]: 2 µM; IC50 [8]: > 63.1 µM; IC50 [9]: 63.1 µM; IC50 [10]: 15.8 µM; IC50 [11]: 6.31 µM
4 | – | – | – | – | – | – | OCCc1ccc(C2NCc3c(Cl)cc(Cl)cc3-n3cccc32)cc1 (stereo not shown) [Compound 34, 4-(7,9-dichloro-5,6-dihydro-4H-pyrrolo[1,2-a][1,4]benzodiazepin-4-yl)-benzeneethanol .HCl] | – | – | IC50 [5]: > 63.1 µM; IC50 [6]: 2 µM; IC50 [7]: 12.6 µM; IC50 [8]: > 63.1 µM; IC50 [9]: > 63.1 µM; IC50 [10]: 31.6 µM; IC50 [11]: 20 µM
5 | – | – | – | – | – | – | Cl.OCCc1ccc(C2NCc3c(Cl)cccc3-n3cccc32)cc1 (stereo not shown) [Compound 35, 4-(7-chloro-5,6-dihydro-4H-pyrrolo[1,2-a][1,4]benzodiazepin-4-yl)-benzeneethanol .HCl] | 4.4 | 4.3 | Inf. A pIC50 [5]: <4.2; Inf. C pIC50 [7]: 5.1; Inf. D pIC50 [8]: <4.2; Inf. E pIC50 [9]: <4.2; Inf. G pIC50 [11]: 4.9
6 | – | – | – | – | – | – | Cl.OCCc1ccc(C2NCc3cc(Cl)cc(Cl)c3-n3cccc32)cc1 (stereo not shown) [Compound 36, 4-(8,10-dichloro-5,6-dihydro-4H-pyrrolo[1,2-a][1,4]benzodiazepin-4-yl)-benzeneethanol .HCl] | 4.3 | 4.6 | Inf. A pIC50 [5]: <4.2; Inf. C pIC50 [7]: 4.5; Inf. D pIC50 [8]: <4.2; Inf. E pIC50 [9]: <4.2; Inf. G pIC50 [11]: 4.7
7 | – | – | – | – | – | – | Cl.OCCc1ccc(C2NCc3c(ccc(Cl)c3Cl)-n3cccc32)cc1 (stereo not shown) [Compound 37, 4-(7,8-dichloro-5,6-dihydro-4H-pyrrolo[1,2-a][1,4]benzodiazepin-4-yl)-benzeneethanol .HCl] | <4.2 | 5.0 | Inf. A pIC50 [5]: 4.8; Inf. C pIC50 [7]: 4.5; Inf. D pIC50 [8]: <4.2; Inf. E pIC50 [9]: 4.4; Inf. G pIC50 [11]: 4.4
8 | – | – | – | – | – | – | Cl.OCCc1ccc(C2NCc3c(Cl)ccc(Cl)c3-n3cccc32)cc1 (stereo not shown) [Compound 38, 4-(7,10-dichloro-5,6-dihydro-4H-pyrrolo[1,2-a][1,4]benzodiazepin-4-yl)-benzeneethanol .HCl] | 5.7 | 4.7 | Inf. A pIC50 [5]: <4.2; Inf. C pIC50 [7]: 5.1; Inf. D pIC50 [8]: <4.2; Inf. E pIC50 [9]: <4.2; Inf. G pIC50 [11]: 4.7
9 | 7 | 50 | 40 | 21 | 69 | 20 | CC(=O)c1ccc(C2=NCc3ccc(Cl)cc3-n3cccc32)cc1 [drawing 86] | – | – | –
10 | 2 | 33 | 21 | 33 | 82 | 18 | CC(=O)c1ccc(C2=NCc3c(Cl)cccc3-n3cccc32)cc1 [drawing 88] | – | – | –
11 | 45 | 62 | 64 | 60 | 41 | 52 | CCc1ccc(C2=NCc3c(Cl)cccc3-n3cccc32)cc1 [drawing 89] | – | – | –
12 | 5 | 17 | 1 | 5 | 48 | 5 | CS(=O)(=O)c1ccc(C2=NCc3c(Cl)cccc3-n3cccc32)cc1 [drawing 90] | – | – | –

Row | Compound | hCYP3A4_BFC_Pct_Inh [1] [%] | hCYP3A4_BQ_Pct_Inh [1] [%] | hCYP3A4_DBF_Pct_Inh [1] [%] | hCYP1A2_CEC_Pct_Inh [2] [%] | hCYP2C9_MFC_Pct_Inh [3] [%] | hCYP2D6_AMMC_Pct_Inh [4] [%] | Inf. B pIC50 [6] | Inf. F pIC50 [10] | also measured
13 | CC(=O)c1ccc(C2NCc3c(Cl)cccc3-n3cccc32)cc1.Cl (stereo not shown) | 57 | 57 | 70 | 12 | 54 | 53 | – | – | –
14 | CCc1ccc(C2NCc3c(Cl)cccc3-n3cccc32)cc1.Cl (stereo not shown) | 64 | 57 | 69 | 48 | 68 | 96 | – | – | –
15 | CCc1ccc(C2=NCc3ccc(Cl)cc3-n3cccc32)cc1 | 55 | 66 | 70 | 40 | 50 | 33 | – | – | –
